According to patent publication US11192849B2, “Compounds, compositions, and methods for modulating ferroptosis and treating excitotoxic disorders” (THE TRUSTEES OF COLUMBIA UNIVERSITY IN THE CITY OF NEW YORK, priority 2013, dated 2021):

Assays:
HT-1080 cells [1] = assay: HT-1080 cell proliferation (Vi-Cell); format: cell-based, human; conditions: over 48 hours
Method: Cell viability was typically assessed in 384-well format by Alamar Blue (Invitrogen) fluorescence (ex/em 530/590) measured on a Victor3 platereader (Perkin Elmer, Waltham, Mass.). In some experiments, Trypan Blue dye exclusion counting was performed using an automated cell counter (ViCell, Beckman-Coulter Inc., Brea, Calif.). Cell viability in test conditions is reported as a percentage relative to the negative control treatment.

mice, LPS-induced shock = assay: LPS-induced lethal shock; format: in vivo, mouse; conditions: Fer-1 5 mg/kg i.p. 30 min before LPS
Method: Mice were injected intraperitoneally (i.p.) with 15 mg/kg Escherichia coli O111:B4 LPS (Sigma-Aldrich). Mice were pretreated by an i.p. injection of 5 mg/kg ethyl 3-amino-4-(cyclohexylamino)benzoate (Fer-1; Matrix Scientific), 10 mg/kg [5-((7-Cl-1H-indol-3-yl)methyl)-3-methylimidazolidine2,4-dione] (Nec-1s; synthesized in house), a combination of Fer-1 and Nec-1s, or vehicle (1% DMSO in PBS) 30 min before the LPS challenge. Rectal body temperature and survival rates were monitored daily up to 96 h. Experiments were approved by the animal ethics committee of Ghent University.

[2] = system: rat organotypic hippocampal slice culture (OHSC); assay: Glutamate excitotoxic injury in organotypic hippocampal slice cultures (PI uptake); format: cell-based; conditions: 5 mM L-glutamate 3 hours; Fer-1 2 μM, CPX 5 μM, MK-801 10 μM; 24 hours
Method: OHSCs were cultured as previously described (Morrison et al., 2002) with approval from Columbia University's Institutional Animal Care and Use Committee (IACUC). Briefly, Sprague Dawley rat pups (P8-P10) were rapidly decapitated, and the hippocampus placed in ice-cold Gey's balanced salt solution (Sigma). 400 μm thick sections were cut using a Mcllwain tissue chopper and immediately plated on Millicell cell culture inserts (Millipore, Billerica, Mass.) in Neurobasal (Invitrogen) media supplemented with B27 (1×, Invitrogen), GlutaMAX (1 mM, Invitrogen), and D-glucose (4.5 mg/mL, Sigma) at 37° C. and 5% CO2. After 2 days in vitro (DIV), the media was changed to medium containing serum comprised of 50% DMEM (Sigma), 25% heat-inactivated horse serum (Sigma), 25% Hank's balanced salt solution (Sigma), GlutaMAX (1 mM, Invitrogen), and D-glucose (4.5 mg/mL, Sigma). Medium was changed every 2-3 days.
After 10-14 DIV, OBSCs were exposed to an excitotoxic injury consisting of a 3 hour exposure to 5 mM L-glutamate in SFM (Morrison et al., 2002). […] After the 3 hour exposure, the cultures were placed in fresh serum free media (SFM) containing 75% DMEM, 25% Hank's balanced salt solution, GlutaMAX (1 mM), D-glucose (4.5 mg/mL) until cell death was quantified at 24 hours. […]
Quantification of cell death has been described previously (Cater et al., 2007; Morrison et al., 2002). […] Percentage cell death was expressed as the number of pixels in the ROI above a threshold in the PI fluorescent image divided by the total number of pixels in the ROI.
OHSCs were treated with a lethal excitotoxic stimulus (5 mM L-glutamate, 3 hours) that mimics the consequences of stroke and neurodegenerative disease (Morrison et al., 2002; Sundstrom et al., 2005) (FIG. 5A). […] The effects of these compound treatments on propidium iodide (PI) uptake were analyzed, as an indicator of cell death, 24 hours following the end of glutamate treatment, in 3 defined regions of the OHSCs: the dentate gyrus (DG), the CA1 and the CA3 fields of the hippocampus.

HT-1080 cells [3] = assay: Cytosolic and lipid ROS production (H2DCFDA, C11-BODIPY flow cytometry) in HT-1080 cells; format: cell-based, human; conditions: erastin (10 μM)
Method: The day before the experiment, 200,000 cells/well were seeded in 6-well dishes (Corning Inc., Corning, N.Y.). The day of the experiment, cells were treated with test compounds for the indicated times, then harvested by trypsinization, resuspended in 500 μL Hanks Balanced Salt Solution (HBSS, Gibco, Invitrogen Corp., Carlsbad, Calif.) containing either H2DCFDA (25 μM), C11-BODIPY(581/591) (2 μM) or MitoSOX (5 μM) (all from Molecular Probes, Invitrogen) and incubated for 10 minutes at 37° C. in a tissue culture incubator. Cells were then resuspended in 500 μL of fresh HBSS, strained through a […] cell strainer (BD Falcon, BD Biosciences, San Jose, Calif.), and analyzed using a flow cytometer (FACSCalibur or Accuri C6, BD Biosciences), which was equipped with 488-nm laser for excitation. Data was collected from the FL1 (H2DCFDA, C11-BODIPY) or FL2 channel (MitoSOX). A minimum of 10,000 cells were analyzed per condition.

CCOC(=O)c1ccc(NC2CCCCC2)c(N)c1 [SRS8-28 (Fer-1), ethyl 3-amino-4-(cyclohexylamino)benzoate]
HT-1080 cell proliferation (HT-1080 cells [1]): did not inhibit ERK phosphorylation or arrest the proliferation of HT-1080 cells | temperature drop and survival after LPS (mice, LPS-induced shock): no difference compared with vehicle-treated mice was evident | glutamate-induced cell death (PI uptake) in DG, CA1, CA3 [2]: attenuated significantly | effect of inhibitor on erastin-induced ROS accumulation (HT-1080 cells [3]): prevent erastin-induced accumulation of cytosolic and lipid ROS
